From article PMC8179002, “Inhibitors of thiol-mediated uptake” (Chemical Science, 2020)
In brackets after ≈: the same amount, converted by molar mass. Read-outs that look alike come from different tables or passages of the source.

Tests used:
[1] = system: cellular uptake of 1 in HeLa Kyoto cells; assay: cells; assay type: cell-based; settings: HeLa; for IC50 / minimal effective concentration: HeLa Kyoto; for IC50: read-out: IC50, inhibition of cellular uptake of 1; for minimal effective concentration: read-out: MIC, inhibition of cellular uptake of 1; for MIC (concentration that causes ∼15% reduction of reporter uptake), against reporter 1: pre-incubation time not given (Fig. 2: 1 h pre-incubation, 30 min with reporter; some 15 min)
Procedure, shortened: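 HeLa Kyoto cells were pre-incubated with inhibitors at varying concentrations and times, washed, then given reporter 1 at 10 μM final for 30 min at 37°C; alternatively, inhibitors were kept during reporter exposure. Hoechst/PI staining and 10x high-content imaging gave mean intracellular fluorescence per cell and viability from PI-negative nuclei.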

[2] = system: cellular uptake of 2 in HeLa Kyoto cells; assay: cells; assay type: cell-based; settings: for IC50: HeLa Kyoto; for MIC against reporter 2: longer pre-incubation (Fig. 2: 4 h pre-incubation)
[3] = 0.5 h, tpre 0.5 h, then tco 0.5 h co-incubation of inhibitor and 1 (10 µM)
[4] = 0.5 h, tpre 0.5 h with inhibitor, removal, tinc 0.5 h with 1 (10 µM)
[5] = 0.5 h, tpre 5.5 h with FBS, then tco 0.5 h co-incubation of inhibitor and 1 (10 µM)
[6] = 0.5 h, tpre 23.5 h with FBS, then tco 0.5 h co-incubation of inhibitor and 1 (10 µM)
[7] = 1 h, tpre 1 h with inhibitor, removal, tinc 0.5 h with 1 (10 µM)
[8] = 2 h, tpre 2 h with inhibitor, removal, tinc 0.5 h with 1 (10 µM)
[9] = 4 h, tpre 4 h with inhibitor, removal, tinc 0.5 h with 1 (10 µM)
[10] = tpre 1 h with inhibitor, removal, tinc 0.5 h with 1 (10 µM)
[11] = tpre 2 h with inhibitor, removal, tinc 0.5 h with 1 (10 µM)
[12] = tpre 4 h with inhibitor, removal, tinc 0.5 h with 1 (10 µM)
[13] = tpre 5.5 h with FBS, then tco 0.5 h co-incubation of inhibitor and 1 (10 µM)
[14] = tpre 23.5 h with FBS, then tco 0.5 h co-incubation of inhibitor and 1 (10 µM)
[15] = read-out: IC50, inhibition of cellular uptake of 2, HeLa, tpre 4 h with inhibitor, removal, tinc 0.5 h with 2 (10 µM)
[16] = HeLa, tpre 0.5 h, then tco 0.5 h co-incubation of inhibitor and 2 (10 µM)
[17] = HeLa, tpre 4 h with inhibitor, removal, tinc 0.5 h with 2 (10 µM)
[18] = HeLa, tpre 6 h with FBS, removal, tinc 0.5 h with 2 (10 µM)
[19] = HeLa, tpre 4 h with inhibitor, removal, tinc 0.5 h with 2 (10 µM), read-out: IC50, inhibition of cellular uptake of 2
[20] = HeLa, tpre 6 h with FBS, removal, tinc 0.5 h with 2 (10 µM), read-out: IC50, inhibition of cellular uptake of 2

Row | SMILES | IC50 [1, 3] [µM] | minimal effective concentration [1, 3] [µM] | IC50 [1, 4] [µM] | minimal effective concentration [1, 4] [µM] | minimal effective concentration [1, 5] [µM] | minimal effective concentration [1, 6] [µM] | minimal effective concentration [1, 7] [µM] | minimal effective concentration [1, 8] [µM] | minimal effective concentration [1, 9] [µM] | IC50 [1, 10] [µM] | IC50 [1, 11] [µM] | IC50 [1, 12] [µM] | IC50 [1, 13] [µM] | IC50 [1, 14] [µM] | MIC (concentration that causes ∼15% reduction of reporter uptake), against reporter 1 [1] | IC50 [2, 15] [µM] | MIC, inhibition of cellular uptake of 2 [2, 17] [µM] | MIC, inhibition of cellular uptake of 2 [2, 18] [µM] | IC50 [2, 19] [µM] | IC50 [2, 20] [µM] | other results
1 | O=C(O)CNC(=O)c1ccc2c(c1)SSSSS2 [compound 6] | 5.1 ± 0.3 | 0.5 | 93 ± 28 | 0.3 | 5 | 12 | 0.3 | 0.4 | 0.4 | 35 ± 9 | 23 ± 6 | 24 ± 5 | 20 ± 1 | > 20 | ≈ 0.3 μM | > 10 | 4 | 60 |  |  | IC50 ([2]; 0.5 h, read-out: IC50, inhibition of cellular uptake of 2, HeLa, tpre 0.5 h, then tco 0.5 h co-incubation of inhibitor and 2 (10 µM)): > 20 µM; IC50 ([2]; read-out: IC50, inhibition of cellular uptake of 2, HeLa, tpre 6 h with FBS, removal, tinc 0.5 h with 2 (10 µM)): > 100 µM; MIC against reporter 2 ([2]; HeLa): 4 µM (≈ 1.35 µg/mL); MIC, inhibition of cellular uptake of 2 [2, 16]: > 20 µM
2 | CCN1C(=O)C2SSC1C(=O)N2CC(=O)O (centres unmarked) [compound 4] | 2 ± 0.2 | 0.3 | 4.4 ± 1.3 | < 0.1 | 0.3 | 8.1 | 0.1 | 0.1 | 0.1 | 1.1 ± 0.1 | 1.5 ± 0.1 | 2.1 ± 0.2 | 4.9 ± 0.5 | 66 ± 14 |  |  | > 2 | 80 | > 2 | > 100 | IC50 ([2]; 0.5 h, HeLa, tpre 0.5 h, then tco 0.5 h co-incubation of inhibitor and 2 (10 µM), read-out: IC50, inhibition of cellular uptake of 2): > 20 µM; IC50 ([2]; HeLa, tpre 1 h with inhibitor, removal, tinc 0.5 h with 2 (10 µM), read-out: IC50, inhibition of cellular uptake of 2): > 20 µM; MIC, inhibition of cellular uptake of 2 [2, 16]: 20 µM; MIC, inhibition of cellular uptake of 2 ([2]; HeLa, tpre 1 h with inhibitor, removal, tinc 0.5 h with 2 (10 µM)): > 20 µM
3 | O=S1(=O)C[C@H](O)[C@H](O)CS1 [compound 16] |  |  |  |  | 10 | 150 | 200 |  |  | > 1000 |  |  | 150 ± 30 | 860 ± 60 |  | 183 ± 18 | 20 |  |  |  | MIC against reporter 2 ([2]; HeLa): ~20 µM (≈ 3.68 µg/mL)
4 | O=C(CN1C(=O)C2SSC1C(=O)N2CCOc1ccccc1)NCC(=O)OC[C@H]1OC(O)[C@H](O)[C@@H](O)[C@@H]1O (some centres unmarked) [compound 7] |  |  | 23 ± 4 | 0.5 | 6 | 54 | 0.5 | 0.2 |  | 27 ± 4 | 15 ± 1 |  | 42 ± 4 | > 100 | ≈ 0.5 μM |  | 70 | 180 | > 100 | > 200 | IC50 ([2]; HeLa, tpre 23.5 h with FBS, then tco 0.5 h co-incubation of inhibitor and 2 (10 µM), read-out: IC50, inhibition of cellular uptake of 2): 41 ± 4 µM; MIC, inhibition of cellular uptake of 2 ([2]; HeLa, tpre 23.5 h with FBS, then tco 0.5 h co-incubation of inhibitor and 2 (10 µM)): 15 µM
5 | O=C(O)CC[C@H](NC(=O)CN1C(=O)C2SSC1C(=O)N2CCOc1ccccc1)C(=O)O (some centres unmarked) [compound 9] |  |  | 89 ± 9 | 15 |  |  | 7 | 7 |  | 86 ± 13 | > 100 |  |  |  |  |  | 60 | 80 | > 100 | > 200 | 
